This note sets out measurements from patent US20070010671A1, “Novel quinazoline derivatives and methods of treatment related to the use thereof” (priority 2003, published 2007).

For one assay, the target named is MCH receptor (Homo sapiens, UniProt Q99705). As to the kind of experiment: High throughput functional screening FLIPR/FDSS6000: inhibition of MCH-evoked intracellular Ca2+ changes. The class given is cell-based. The settings on record: class by percent of control at 10^-7 M or IC50. The method in brief: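 Seed cells the day before, then load them with Fluo4-AM for one hour at 37° C and wash in HEPES-buffered HBSS, pH 7.4. Add compound for 3 min, then stimulate with 50 nM MCH. Monitor the calcium transient for 290 s.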
`CN(C)c1nc(N[C@H]2CC[C@@H](CNC(=S)Nc3ccc(C(F)(F)F)cc3)CC2)nc2ccccc12` [compound 655]: the class was 3 (Class 3: The value of percent of control at 10^−7 M was more than 60% or the value of IC50 was more than 200 nM.).
The same measure, in the same setting: the same measure for `Cc1cc(Br)ccc1NC(=O)N[C@H]1CC[C@@H](Nc2nc(N(C)C)c3ccccc3n2)CC1` [compound 334]: 1 (Class 1: The value of percent of control at 10^−7 M was less than 40% or the value of IC50 was less than 50 nM.).
Consider `CN(C)c1nc(N[C@H]2CC[C@@H](NC(=S)Nc3cccc(C#N)c3)CC2)nc2ccccc12` [compound 225], for which the class is given as 3 (Class 3: The value of percent of control at 10^−7 M was more than 60% or the value of IC50 was more than 200 nM.).
Still for that read-out and setting: next, `CN(C)c1nc(N[C@H]2CC[C@@H](CNC(=O)Nc3ccc(Cl)cc3Cl)CC2)nc2ccccc12` [compound 423, N-(2,4-dichlorophenyl)-N′-[(cis-4-{[4-(dimethylamino)quinazolin-2-yl]amino}cyclohexyl)methyl]urea]: 2 (Class 2: The value of percent of control at 10^−7 M was from 40% to 60% or the value of IC50 was from 50 nM to 200 nM.); `Cc1cc(C)cc(NC(=S)N[C@H]2CC[C@@H](Nc3nc(N(C)C)c4ccccc4n3)CC2)c1` [compound 260, N-(cis-4-{[4-(dimethylamino)quinazolin-2-yl]amino}cyclohexyl)-N′-(3,5-dimethylphenyl)thiourea]: 2 (Class 2: The value of percent of control at 10^−7 M was from 40% to 60% or the value of IC50 was from 50 nM to 200 nM.).
With `CN(C)c1nc(N[C@H]2CC[C@@H](CNC(=S)Nc3cccc(SC(F)(F)F)c3)CC2)nc2ccccc12` [compound 646], the class is on record as 3 (Class 3: The value of percent of control at 10^−7 M was more than 60% or the value of IC50 was more than 200 nM.).
Still for that read-out and setting: the same measure for `COc1cc([N+](=O)[O-])ccc1NC(=O)NC[C@H]1CC[C@@H](Nc2nc(N(C)C)c3ccccc3n2)CC1` [compound 503]: 3 (Class 3: The value of percent of control at 10^−7 M was more than 60% or the value of IC50 was more than 200 nM.).
On the same count and under the same terms, next, `CN(C)c1nc(N[C@H]2CC[C@@H](NC(=S)Nc3c(F)cccc3F)CC2)nc2ccccc12` [compound 213]: 3 (Class 3: The value of percent of control at 10^−7 M was more than 60% or the value of IC50 was more than 200 nM.).
The same measure, in the same setting: next, `CN(C)c1nc(N[C@H]2CC[C@@H](NC(=S)Nc3ccccc3I)CC2)nc2ccccc12` [compound 219]: 2 (Class 2: The value of percent of control at 10^−7 M was from 40% to 60% or the value of IC50 was from 50 nM to 200 nM.); `CN(C)c1nc(N[C@H]2CC[C@@H](CNC(=O)Nc3ccc(Br)cc3Cl)CC2)nc2ccccc12` [compound 543]: 3 (Class 3: The value of percent of control at 10^−7 M was more than 60% or the value of IC50 was more than 200 nM.).
For `COC(=O)c1scc(C)c1NC(=S)N[C@H]1CC[C@@H](Nc2nc(N(C)C)c3ccccc3n2)CC1` [compound 381], the class is reported as 1 (Class 1: The value of percent of control at 10^−7 M was less than 40% or the value of IC50 was less than 50 nM.).
As to `CN(C)c1nc(N[C@H]2CC[C@@H](CNC(=O)Nc3ccsc3)CC2)nc2ccccc12` [compound 764, N-[(cis-4-{[4-(dimethylamino)quinazolin-2-yl]amino}cyclohexyl)methyl]-N′-3-thienylurea], the class is 2 (Class 2: The value of percent of control at 10^−7 M was from 40% to 60% or the value of IC50 was from 50 nM to 200 nM.).
Same read-out and setting: the same measure for `Cc1cc([N+](=O)[O-])ccc1NC(=S)NC[C@H]1CC[C@@H](Nc2nc(N(C)C)c3ccccc3n2)CC1` [compound 726]: 3 (Class 3: The value of percent of control at 10^−7 M was more than 60% or the value of IC50 was more than 200 nM.).
Still for that read-out and setting: next, `CN(C)c1nc(N[C@H]2CC[C@@H](CNC(=S)Nc3ccc(Cl)c(Cl)c3)CC2)nc2ccccc12` [compound 594]: 3 (Class 3: The value of percent of control at 10^−7 M was more than 60% or the value of IC50 was more than 200 nM.).
Same read-out and setting: next, `Cc1ccc(Cl)c(NC(=O)NC[C@H]2CC[C@@H](Nc3nc(N(C)C)c4ccccc4n3)CC2)c1` [compound 486]: 2 (Class 2: The value of percent of control at 10^−7 M was from 40% to 60% or the value of IC50 was from 50 nM to 200 nM.); `CN(C)c1nc(N[C@H]2CC[C@@H](NC(=S)Nc3cccnc3)CC2)nc2ccccc12` [compound 390]: 3 (Class 3: The value of percent of control at 10^−7 M was more than 60% or the value of IC50 was more than 200 nM.); `CN(C)c1nc(N[C@H]2CC[C@@H](NC(=S)Nc3ccc(S(=O)(=O)N4CCCCC4)cc3)CC2)nc2ccccc12` [compound 357]: 3 (Class 3: The value of percent of control at 10^−7 M was more than 60% or the value of IC50 was more than 200 nM.).
With `Cc1ccc(NC(=S)N[C@H]2CC[C@@H](Nc3nc(N(C)C)c4ccccc4n3)CC2)c(Br)c1` [compound 252], the class is listed as 1 (Class 1: The value of percent of control at 10^−7 M was less than 40% or the value of IC50 was less than 50 nM.).
Still for that read-out and setting: next, `CN(C)c1nc(N[C@H]2CC[C@@H](CNC(=O)Nc3ccc(-c4ccccc4)s3)CC2)nc2ccccc12` [compound 768]: 3 (Class 3: The value of percent of control at 10^−7 M was more than 60% or the value of IC50 was more than 200 nM.); `Cc1cc(Br)cc(C)c1NC(=S)N[C@H]1CC[C@@H](Nc2nc(N(C)C)c3ccccc3n2)CC1` [compound 266, N-(4-bromo-2,6-dimethylphenyl)-N′-(cis-4-{[4-(dimethylamino)quinazolin-2-yl]amino}cyclohexyl)thiourea]: 1 (Class 1: The value of percent of control at 10^−7 M was less than 40% or the value of IC50 was less than 50 nM.).

Staying with this assay, now noted: class by percent of control at 10^-7 M or by IC50; read-out: class.
Take `CCCCOc1ccc(NC(=O)N[C@H]2CC[C@@H](Nc3nc(N(C)C)c4ccccc4n3)CC2)cc1` [compound 831]: the IC50 is more than 200 nM.
Same read-out and setting: next, `Cc1cccc(C(C)(C)C)c1NC(=O)N[C@H]1CC[C@@H](Nc2nc(N(C)C)c3ccccc3n2)CC1` [compound 116, N-(2-tert-butyl-6-methylphenyl)-N′-(cis-4-{[4-(dimethylamino)quinazolin-2-yl]amino}cyclohexyl)urea]: less than 50 nM.
Same read-out and setting: the same measure for `CN(C)c1nc(N[C@H]2CC[C@@H](NC(=O)OCC(C)(C)C)CC2)nc2ccccc12` [compound 847]: more than 200 nM.
With `CN(C)c1nc(N[C@H]2CC[C@@H](NC(=S)Nc3ccccc3)CC2)nc2ccccc12` [compound 191], the IC50 is more than 200 nM.
Still for that read-out and setting: next, `CN(C)c1nc(N[C@H]2CC[C@@H](NC(=O)Nc3ccc(Cl)cc3C(F)(F)F)CC2)nc2ccccc12` [compound 145, N-[4-chloro-2-(trifluoromethyl)phenyl]-N′-(cis-4-{[4-(dimethylamino)quinazolin-2-yl]amino}cyclohexyl)urea]: less than 50 nM; `CN(C)c1nc(N[C@H]2CC[C@@H](CNC(=S)Nc3cccnc3)CC2)nc2ccccc12` [compound 809]: more than 200 nM.
For the compound `CN(C)c1nc(N[C@H]2CC[C@@H](NC(=O)Oc3ccc4ccccc4c3)CC2)nc2ccccc12` [compound 856], the IC50 was more than 200 nM.
On to `CN(C)c1nc(N[C@H]2CC[C@@H](NC(=O)Nc3ccccc3OC(F)F)CC2)nc2ccccc12` [compound 69], for which the IC50 was more than 200 nM.
Turning to `CN(C)c1nc(N[C@H]2CC[C@@H](NC(=O)NC3c4ccccc4-c4ccccc43)CC2)nc2ccccc12` [compound 840, N-(cis-4-{[4-(dimethylamino)quinazolin-2-yl]amino}cyclohexyl)-N′-9H-fluoren-9-ylurea], the IC50 is more than 200 nM.
Still for that read-out and setting: the same measure for `CN(C)c1nc(N[C@H]2CC[C@@H](NC(=O)Nc3c(Cl)cccc3C(F)(F)F)CC2)nc2ccccc12` [compound 89, N-[2-chloro-6-(trifluoromethyl)phenyl]-N′-(cis-4-{[4-(dimethylamino)quinazolin-2-yl]amino}cyclohexyl)urea]: less than 50 nM; for `Cc1ccc(NC(=O)N[C@H]2CC[C@@H](Nc3nc(N(C)C)c4ccccc4n3)CC2)cc1` [compound 57, N-(cis-4-{[4-(dimethylamino)quinazolin-2-yl]amino}cyclohexyl)-N′-(4-methylphenyl)urea]: 50 to 200 nM; for `CN(C)c1nc(N[C@H]2CC[C@@H](NC(=O)Nc3cccc(Cl)c3Cl)CC2)nc2ccccc12` [compound 24]: more than 200 nM.

The assay is the same for the next values; noted with them: class by percent of control at 10^−7 M or by IC50; read-out: class.
`CN(C)c1nc(N[C@H]2CC[C@@H](CNC(=O)Nc3cccc(Cl)c3Cl)CC2)nc2ccccc12` [Example 1028, N-(2,3-dichlorophenyl)-N′-[(cis-4-{[4-(dimethylamino)quinazolin-2-yl]amino}cyclohexyl)methyl]urea]: the IC50 was less than 50 nM.
Regarding `CN(C)c1nc(N[C@H]2CC[C@@H](NC(=O)c3ccc(Oc4ccc(F)c(F)c4)nc3)CC2)nc2ccccc12` [Example 1065, 6-(3,4-difluorophenoxy)-N-(cis-4-{[4-(dimethylamino)quinazolin-2-yl]amino}cyclohexyl)nicotinamide], the IC50 is less than 50 nM.
The same measure, in the same setting: next, `CN(C)c1nc(N[C@H]2CC[C@@H](CNC(=O)[C@@H](O)c3ccccc3)CC2)nc2ccccc12` [Example 1103, (2S)-N-[(cis-4-{[4-(dimethylamino)quinazolin-2-yl]amino}cyclohexyl)methyl]-2-hydroxy-2-phenylacetamide]: more than 200 nM.
Turning to `CN(C)c1nc(N[C@H]2CC[C@@H](NCc3ccc(OC(F)(F)F)cc3)C2)nc2ccccc12` [Example 1047, N4,N4-dimethyl-N2-((1S,3R)-3-{[4-(trifluoromethoxy)benzyl]-amino}cyclopentyl)quinazoline-2,4-diamine], the IC50 is more than 200 nM.
Regarding `COc1cccc(CNC(=O)[C@H]2CC[C@@H](Nc3nc(N(C)C)c4cc(F)c(F)cc4n3)CC2)c1` [Example 995, cis-4-{[4-(dimethylamino)-6,7-difluoroquinazolin-2-yl]amino}-N-(3-methoxybenzyl)cyclohexanecarboxamide], the IC50 was in the range of 50 to 200 nM.
